Data published in ChEMBL document CHEMBL5131397, “Discovery and Optimization of Pyrazole Amides as Inhibitors of ELOVL1” (J Med Chem, 2021).
Active and inactive are the calls of the source. The rule behind the calls is not given here.

Experiments:
[1] = Efflux ratio of permeability across […] in dog MDCK-MDR1 transfected cells by LC-MS analysis; format: ADME, cell-based, Canis lupus familiaris
[2] = Reduction in C26:0 LPC level in ABCD1 knock out mouse blood assessed as fold increase at 0.5 to 32 mg/kg, po qd for 105 days by LC-MS/MS analysis; format: functional; conditions: dose 0.5-32 mg/kg, time 105 day
[3] = Volume of distribution at steady state in Cynomolgus monkey at 1 mg/kg, iv upto 48 hrs by LC/MS/MS analysis; format: ADME, organism-based, Macaca fascicularis; conditions: in vivo, read-out: Vdss
[4] = Cytotoxicity against human THLE-2 cells assessed as decrease in intracellular ATP levels incubated for 72 hrs by Cell Titer-Glo luminescence assay; format: toxicity, cell-based; conditions: read-out: TC50
[5] = Clearance in mouse at 1 mg/kg, iv upto 48 hrs by LC/MS/MS analysis; format: ADME, organism-based; conditions: in vivo
[6] = Clearance in Cynomolgus monkey at 1 mg/kg, iv upto 48 hrs by LC/MS/MS analysis; format: ADME, organism-based, Macaca fascicularis; conditions: in vivo
[7] = Tmax in Sprague-Dawley rat at 3 mg/kg, po upto 24 hrs by LC/MS/MS analysis; format: ADME, organism-based; conditions: in vivo
[8] = Lipophilicity, logD of compound at pH 7.4; format: physicochemical; conditions: buffer
[9] = Apparent permeability across apical to basolateral side in wild-type dog MDCK cells by LC-MS analysis; format: ADME, cell-based, Canis lupus familiaris
[10] = target: T1, Very long chain fatty acid elongase 4 (Homo sapiens, UniProt Q9GZR5); experiment: Inhibition of ELOVL4 (unknown origin) in presence of C26-acyl-CoA by radiometric enzyme assay
T1 sequence (Q9GZR5 whole entry): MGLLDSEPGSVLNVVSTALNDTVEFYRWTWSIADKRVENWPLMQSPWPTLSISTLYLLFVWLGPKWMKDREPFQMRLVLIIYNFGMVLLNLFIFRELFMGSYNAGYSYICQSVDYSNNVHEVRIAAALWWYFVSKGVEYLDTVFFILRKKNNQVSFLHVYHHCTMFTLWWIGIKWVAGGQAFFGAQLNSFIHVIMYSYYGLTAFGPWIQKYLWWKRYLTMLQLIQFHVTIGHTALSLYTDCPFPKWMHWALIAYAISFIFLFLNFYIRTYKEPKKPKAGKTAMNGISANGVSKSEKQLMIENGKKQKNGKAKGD

[11] = target: T2, Very long chain fatty acid elongase 7 (Homo sapiens) (UniProt A1L3X0); experiment: Inhibition of ELOVL-7 in human HEK2936E cells assessed as reduction in C22:0 lysophosphatidyl choline synthesis at 100 nM in presence of 13C-labeled acetate measured after 48 hrs; format: cell-based
T2 sequence (whole entry): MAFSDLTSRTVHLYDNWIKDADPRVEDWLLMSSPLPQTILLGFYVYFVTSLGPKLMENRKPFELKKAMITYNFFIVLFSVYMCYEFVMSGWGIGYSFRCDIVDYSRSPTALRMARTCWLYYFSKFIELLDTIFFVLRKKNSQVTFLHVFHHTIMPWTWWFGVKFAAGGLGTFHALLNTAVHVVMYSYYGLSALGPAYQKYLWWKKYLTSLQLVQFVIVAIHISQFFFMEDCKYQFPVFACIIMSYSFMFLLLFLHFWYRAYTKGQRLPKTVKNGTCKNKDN

Fibroblast = experiment: Reduction in C26:0 lysophosphatidyl choline synthesis in primary human CALD patient-derived fibroblast incubated for 48 hrs; format: functional, cell-based; conditions: DDE = dose-dependent effect
[12] = Reduction in C26:0 LPC level in ABCD1 knock out mouse blood at 0.5 mg/kg, po qd for 105 days by LC-MS/MS analysis relative to control; format: functional; parameters: scale not given: the % may be the effect or the level left; conditions: time 105 day
Mus musculus [13] = experiment: Reduction in C26:0/C16:0 LPC level in normal diet fed ABCD1 knock out mouse blood administered orally qd measured after 14 day by LC-MS/MS analysis; format: functional, tissue-based; conditions: route po, DDE = dose-dependent effect
[14] = Reduction in C26:0/C16:0 LPC level in wild-type Sprague-Dawley rat at 100 mg/kg, po qd treated for 7 days by LC-MS/MS analysis; format: functional; parameters: scale not given: the % may be the effect or the level left; conditions: time 7 day
[15] = Reduction in C26:0/C16:0 LPC level in wild-type Sprague-Dawley rat at 300 mg/kg, po qd treated for 7 days by LC-MS/MS analysis; format: functional; parameters: scale not given: the % may be the effect or the level left; conditions: time 7 day
[16] = Reduction in C26:0 LPC level in Cynomolgus monkey plasma at 15 mg/kg, po qd for 13 weeks by LC-MS/MS analysis; format: functional, Macaca fascicularis; parameters: scale not given: the % may be the effect or the level left
[17] = Reduction in C26:0/C16:0 LPC level in ABCD1 knock out mouse CNS at 4 mg/kg, po qd measured after 6 months of dosing by LC-MS/MS analysis; format: functional; parameters: scale not given: the % may be the effect or the level left; conditions: 4380 h
[18] = Reduction in C26:0/C16:0 LPC level in ABCD1 knock out mouse CNS at 20 mg/kg, po qd measured after 8 months of dosing by LC-MS/MS analysis; format: functional; parameters: scale not given: the % may be the effect or the level left; conditions: 5840 h
Mus musculus [19] = experiment: Reduction in C22:0/C16:0 LPC level in ABCD1 knock out mouse CNS at 1 to 10 mg/kg, po qd measured after 3 months of dosing by LC-MS/MS analysis; format: functional, organism-based; conditions: dose 1-10 mg/kg
Mus musculus [20] = experiment: Reduction in C24:0/C16:0 LPC level in ABCD1 knock out mouse CNS at 1 to 10 mg/kg, po qd measured after 3 months of dosing by LC-MS/MS analysis; format: functional, organism-based; conditions: dose 1-10 mg/kg
[21] = Toxicity in Sprague-Dawley rat assessed as erosion of forestomach at 5 to 50 mg/kg/day, po administered for 2 to 8 weeks; format: organism-based; conditions: in vivo, dose lower 5 mg/kg/day, time lower 2 weeks, dose upper 50 mg/kg/day, time upper 8 weeks
[22] = Toxicity in Sprague-Dawley rat assessed as corneal neovascularization at 5 mg/kg/day, po administered for 8 weeks by macroscopic observation analysis; format: organism-based; conditions: in vivo, 1344 h
[23] = Toxicity in Sprague-Dawley rat assessed as ocular inflammation at 5 mg/kg/day, po administered for 8 weeks by microscopic observation analysis; format: organism-based; conditions: in vivo, 1344 h
[24] = Toxicity in juvenile Sprague-Dawley rat assessed as corneal lesions at 5 to 75 mg/kg/day, po treatment started from postnatal day 18 to 114 days; format: organism-based; conditions: in vivo, dose lower 5 mg/kg/day, time lower 18 day, dose upper 75 mg/kg/day, time upper 114 day
[25] = Toxicity in juvenile Sprague-Dawley rat assessed as clonic convulsions 5 to 75 mg/kg/day, po treatment started from postnatal day 75 to 114 days measured after cessation of dosing; format: organism-based; conditions: in vivo, dose lower 5 mg/kg/day, time lower 75 day, dose upper 75 mg/kg/day, time upper 114 day
[26] = Toxicity in Cynomolgus monkey assessed as ataxia at 50 mg/kg/day, po administered for 14 days; format: organism-based, Macaca fascicularis; conditions: in vivo, 336 h, time 14 day
[27] = Toxicity in Cynomolgus monkey assessed as skin lesions at 5 to 50 mg/kg/day, po administered for 14 days; format: organism-based, Macaca fascicularis; conditions: in vivo, 336 h, dose 5-50 mg/kg/day, time 14 day
[28] = Toxicity in Cynomolgus monkey assessed as skin inflammatory infiltrates at 5 to 50 mg/kg/day, po administered for 14 days by microscopic observation analysis; format: organism-based, Macaca fascicularis; conditions: in vivo, 336 h, dose 5-50 mg/kg/day, time 14 day

O=C(Nc1ccn(-c2ccnc(F)c2)n1)C1(c2ccccc2F)CC1
Ratio [1]: 1.1
fold change (FC) [2]: 10
Vd [3]: 3 L/kg
CC50 at 72 h [4]: > 100 µM
clearance [5]: 0.642 L/h/kg
clearance [6]: 0.42 L/h/kg
Tmax [7]: 24 min
logD [8]: 3.2
Papp A→B [9]: 101 nm/s
IC50 [10]: > 200 µM
inhibition [11]: Active
Activity (Fibroblast): Dde
Activity [12]: 50%
Activity (Mus musculus [13]): Dde
Activity [14]: 77%
Activity [15]: 85%
Activity [16]: 82%
Activity [17]: 57%
Activity [18]: 65%
Activity (Mus musculus [19]): Active
Activity (Mus musculus [20]): Active
Activity [21]: Toxic
Activity [22]: Toxic
Activity [23]: Toxic
Activity [24]: Toxic
Activity [25]: Toxic
Activity [26]: Toxic
Activity [27]: Toxic
Activity [28]: Toxic
